# Key:
# [1] = tested on: AMPK-KSR1 interaction; assay: Coimmunoprecipitation of AMPK with KSR1; type: cell-based; conditions: AMPK expressed in cells with KSR1; FIG. 22
# Excerpt: (§1) FIG. 22. is a series of western blots showing that AMPK coimmunopreciptates with KSR1 and KSR2.
# (§2) AMP activated protein kinase (AMPK) is a critical regulator of catabolism in cells, promoting the synthesis of ATP and inhibiting the anabolic effects of other hormones to promote […]. AMPK is an indirect target of the widely prescribed anti-diabetic drug metformin. […] When AMPK is expressed in cells with either KSR or KSR2, AMPK is found to precipitate with either protein. AMPK is not precipitated in the absence of KSR proteins.
# [2] = tested on: AMPK-KSR2 interaction; assay: Coimmunoprecipitation of AMPK with KSR2; type: cell-based; conditions: AMPK expressed in cells with KSR2; FIG. 22
# Excerpt: as §1, §2
smiles,measurement,setting,value
CC[C@H]1/C=C/C=C/C[C@@H](C)[C@H](O)[C@@](C)(O)C(=O)[C@@H](C)[C@H](O)[C@@H](C)C(=O)[C@@H](C)[C@H](O)[C@@H](C)/C=C/C(=O)O[C@@H]2[C@H](C)[C@H](CC1)O[C@]1(CC[C@H](C)[C@H](C[C@@H](C)O)O1)[C@H]2C [oligomycin],Effect on interaction of AMPK with KSR1,[1],does not alter
same,Effect on interaction of AMPK with KSR2,[2],does not alter

# Source: patent publication US7723564B2, “Compositions and methods for modulation of KSR1 and KSR2 interactions” (Board of Regents of the University of Nebraska, priority 2006, dated 2010)
